One substance from patent US8106038B2, “Method for reducing or preventing PDT related inflammation” (QLT Inc., priority 2001, dated 2012) can be followed below.

The test system of one data set is macrophages. As to conditions: rabbit, in vivo. How it is done: Tetracaine HCI (0.5%) was used for topical anesthesia.
All eyes were enucleated immediately after euthanasia. […] Serial cryosections were cut and stored at −70° C. Non-treated eyes were used for control. Cryosections were stained with H&E and immunohistochemical staining.

In data set [1] the test system is normal rabbit choroid. As to conditions: in vivo.
Experimental: (§1) Twelve pigmented rabbits weighing between 2 and 4 kg were used. Animals were anesthetized with ketamine HCI (40 mg/kg) and xylocaine (5 mg/kg). Tetracaine HCI (0.5%) was used for topical anesthesia. Tropicamide (1%) and phenylephrine (2.5%) eye drops were used for pupillary dilation. Euthanasia was accomplished with sodium pentobarbital (150 mg/kg) intracardiac injection. Two rabbits were sacrificed at day 2, 7, 14, 28, 42 and 56 following PDT.
(§2) Ten rabbits were injected intravenously with 2 mg/kg BPD-MA, and 689 nm laser light at 600 mW/cm^2 was successively applied on three 1.25-mm spot in one eye according to the following schedule:
Following PDT, animals were kept in a dark room overnight.
Fluorescein angiography (FA) and fundus photography were performed as 2 baseline before PDT, the day after PDT, weekly, and at the day of sacrifice.
(§3) Normal-dose PDT was performed as phase 1 in three rabbits.
(§4) Immediately after each individual light treatment with normal-dose PDT, 5 mm Spot concentric with the 1.25 mm spot was exposed to 15 J/cm^2 (25 sec) in three rabbits. FA and fundus photography was taken as phase 1, and animals were sacrificed for immunohistochemical study at day 28 following PDT.
Data set [2] relates to normal rabbit choroid. Conditions: in vivo. The source holds these as a separate data set.
Experimental: as §1, §2
(§5) All eyes were enucleated immediately after euthanasia. After the cornea, lens, and vitreous were removed, experimental area was delineated with sharp cuts. Tissue was placed in freezing compound (OCT) and frozen in liquid nitrogen. Serial cryosections were cut and stored at −70° C. Non-treated eyes were used for control. Cryosections were stained with H&E and immunohistochemical staining.
The subject of a further data set is CD8 positive cells. As to conditions: rabbit, in vivo.
The subject of a further data set is CD4 positive cells. As to conditions: rabbit, in vivo.
A further data set deals with MHC-II positive cells. As to conditions: rabbit, in vivo.
Data set [3] has as its system CD4, CD8, Macrophage and MHC-II positive cells. In words: Immunohistochemistry of inflammatory cells after PDT (combined statements).
Experimental: as §1, §2, §5
Frozen sections were thawed and fixed with fresh acetone for 5 minutes. Endogenous peroxide activity was blocked with 0.3% hydrogen peroxide in phosphate buffered saline (PBS). After blocked with PBS and 1% bovine serum albumin (BSA), the specific primary antibodies were diluted in PBS with 1% BSA and incubated at room temperature for an hour. Detection was achieved using ABC Elite detection kit (DAKO) with aminoethylcarbizole as the chromogen. Sections were counterstained with light Mayers' hematoxylin, washed with tap water, and mounted in water soluble mounting medium (Biomeda, Catalogue no. MO1).
as §3, §4

Some results are limits rather than exact numbers.

Experimental for CD4 positive cells: as §1, §2, §5
(§6) Frozen sections were thawed and fixed with fresh acetone for 5 minutes. Endogenous peroxide activity was blocked with 0.3% hydrogen peroxide in phosphate buffered saline (PBS). After blocked with PBS and 1% bovine serum albumin (BSA), the specific primary antibodies were diluted in PBS with 1% BSA and incubated at room temperature for an hour. […]
Experimental for CD8 positive cells: as §1, §2, §5, §6

For the substance “9-methyl (I) and 13-methyl (II) trans-(±)-18-ethenyl-4,4a-dihydro-3,4-bis(methoxycarbonyl)-4a,8,14,19-tetramethyl-23H,25H-benzo[b]porphine-9,13-dipropanoate [BPD-MA]”, in the data set with macrophages, the “Macrophage positive cells after the additional low-dose PDT” value is “slightly increased” and the “change of macrophages versus control” value is “statistically significantly increased”. Further, in the data set on normal rabbit choroid [1], the “neovascular leakage on fluorescein angiography” value was “no neovascular leakages”. In the data set on normal rabbit choroid [2], the “dependence of histologic damage on dose of light” value was “more severe with the higher dose of light”; the “histologic damage of RPE layer, photoreceptor layer, outer nuclear and plexiform layer” value was “damaged in all cases”; the “histologic damage of inner nuclear layer” value is listed as “a little damages but generally preserved well”; the “state of choriocapillaries and larger choroidal vessels after PDT” value was “collapsed after PDT, but not the larger choroidal vessels”. In addition, the “time for RPE layer to begin to become a monolayer again” value in the data set on normal rabbit choroid [2] was “in two weeks”. Besides, the “change of CD8 positive cells versus control” value in the data set with CD8 positive cells is “statistically significantly increased”. In the data set with CD4 positive cells, the “change of CD4 positive cells in treated area” value is recorded as “no significant increase” and the “change of CD4 positive cells versus control” value is “statistically significantly increased”. The “change of MHC-II positive cells versus control” value with MHC-II positive cells is reported as “statistically significantly increased”. In data set [3] (normal rabbit choroid), the “persistence of inflammatory reactions after therapeutic PDT” value is listed as no more than 56 days. Further, in data set [3] (rabbit, Phase 2, 4 weeks after low-dose PDT), the “change of CD4, CD8, Macrophage and MHC-II positive cells compared to control” value was “slightly increased”. Moreover, in data set [3] (rabbit, Phase 3, day 28), the “effect of additional concentric large diameter low-dose PDT on the increase in CD4, CD8, Macrophage and MHC-II positive cells after normal-dose PDT” value is reported as “suppressed the increase”. In data set [3] (rabbit, low dose light 15 J/cm^2), the “effect of low dose light following therapeutic PDT on inflammation” value is “effectively inhibited the increase in inflammation”.
